Experimental data from patent US20230172201A1, “Use of 4-Phenylbutyric Acid and/or 3-Phenylbutyric Acid and/or 2-Phenylbutyric Acid in Preventing and Treating Cryptogamic Diseases” (Institut National de Recherche Pour L'Agriculture, …, priority 2020, published 2023).
Where two headings read alike, the source gives them in different places.

Columns and labels:
[1] = system: Botrytis cinerea (BMM strain); assay: Germination of the spores and growth of the primary hypha in liquid medium; format: cell-based; conditions: 16 to 18 hours
Cercospora beticola = assay: Radial growth of the mycelium; format: cell-based; conditions: 528 h
Zymoseptoria tritici = assay: Growth of the primary hypha on PG solid medium; format: cell-based
[2] = system: Fusarium oxysporum f. sp melonis; assay: Radial growth of the mycelium; format: cell-based; conditions: 288 h
[3] = system: Arabidopsis thaliana (ecotype Col-0); assay: Phytotoxicity after leaf infiltration; format: in vivo; conditions: 0.5 or 1 mM; 48 hours after infiltration
Experimental: Material and Methods. Seeds of A. thaliana (ecotype Col-0) were sown in individual pots directly on compost without a prior step of stratification. […] The experiment was repeated 3 times. Each experiment included about ten plants. Six leaves representative of the 3 experiments were photographed 48 hours after infiltration (FIG. 5c).

Leptosphaeria maculans = assay: Radial growth of the mycelium; format: cell-based; conditions: Plenodomus lingam, 432 h, time 18 days
[4] = system: Botrytis cinerea (BMM strain); assay: Protection of thale cress leaves against gray rot, B. cinerea spore inoculum with or without 4-PBA; format: in vivo; conditions: A. thaliana Col-0 leaves, 4-PBA 1 mM in inoculum
Alternaria brassicicola = assay: Radial growth of the mycelium; format: cell-based; conditions: 240 h; for inhibition at 1000 µM / inhibition at 2000 µM / inhibition at 5000 µM: time 10 days
[5] = system: Botrytis cinerea (BMM strain); assay: Protection of grapevine foliar disks against gray rot, B. cinerea spore inoculum with or without 4-PBA; format: in vivo; conditions: grapevine cv. Gamay foliar disks; 4-PBA 1 mM; 5·10^4 spores/mL; 3 days
Experimental: Material and Methods. A commercial variety of grapevine (Vitis […], cultivar Gamay) was grown in a greenhouse for 6 weeks. […] The inoculum was prepared as mentioned above for the experiments carried out with A. thaliana. A volume of 6 μL was deposited on each disk. The infected disks were incubated as for the experiments carried out on foliar disks of tomato. The disease symptoms were photographed and quantified 3 days after infection from the distribution of the lesions as a function of their diameter and by measuring the largest diameter of the lesions. […] The results presented in FIG. 4 correspond to the mean values±standard deviation.

Phytophthora parasitica = assay: Radial growth of the oomycete; format: cell-based
[6] = system: Botrytis cinerea (BMM strain); assay: Protection of tomato foliar disks against gray rot, B. cinerea spore inoculum with or without compound; format: in vivo; conditions: for proportion of lesions larger than 4 mm in diameter: tomato Moneymaker foliar disks, 3 days; for median ratio of gDNA of the fungus to that of the plant, times lower than fungus alone / decrease of the average diameter of the lesions: tomato Moneymaker
[7] = system: Arabidopsis thaliana (ecotype Col-0); assay: Effect of watering with 4-PBA on vegetative growth (rosette weight); format: in vivo; conditions: watering with 1 mM once a week for 4 weeks
Experimental: Material and Methods. The seeds of A. thaliana (ecotype Col-0) were sown in individual pots directly on compost without a prior step of stratification. […] These plants were then separated into 2 batches with 12 plants each, one watered with distilled water, the other with a solution of 4-PBA at a final concentration of 1 mM. In practice, watering took place once a week on a fixed day and at a fixed time, for 4 consecutive weeks (FIG. 5a). […] The rosette of each of the plantlets was then weighed to evaluate the effect of watering with 4-PBA on vegetative growth.

Sclerotinia sclerotorum = assay: Radial growth of the mycelium; format: cell-based; conditions: 168 h
[8] = system: Colletrotrichum lindemuthianum; assay: Radial growth of the mycelium; format: cell-based
[9] = system: Phanerochaete chrysosporium; assay: Radial growth of the mycelium; format: cell-based
Alternaria solani = assay: Radial growth of the mycelium; format: cell-based; conditions: 528 h
Phytophthora capsici = assay: Radial growth of the oomycete; format: cell-based
Magnaporthe oryzae = assay: microbe, parasite or virus in culture; format: cell-based; conditions: Pyricularia oryzae, 336 h
Fusarium graminearum = assay: microbe, parasite or virus in culture; format: cell-based
Fusarium verticilloides = assay: Radial growth of the mycelium; format: cell-based; conditions: 288 h
[10] = system: Botrytis cinerea (BMM strain); assay: Radial growth of the mycelium on solid PDA medium
Experimental: The BMM strain of the fungus B. cinerea was cultured for about 10 days on solid PDA medium (24 g/L of PDB and 15 g/L of agar) in the dark and at a temperature of 22° C. A cylinder of agar comprising the mycelium at its top was then cut out with a sterile punch with a diameter of 6 mm, and was then deposited at the center of round Petri dishes (9 cm diameter) containing PDA medium supplemented or not with 4-PBA. 4-PBA, prepared extemporaneously, was added directly to the molten culture medium to final concentrations of 1, 2 and 5 mM. Controls were prepared by adding a volume of sterile water equivalent to the highest concentration of 4-PBA. The dishes were kept in the dark at a temperature of 22° C. throughout the experiment. […] For this, the following linear regression was used: Degree of inhibition (%)=f(ln[4-PBA]).

[11] = system: Botrytis cinerea (BMM strain); assay: Mycelial development in liquid medium, absorbance at 600 nm (nephelometry); format: cell-based; conditions: 1 mM; for inhibition at 1000 µM: Botrytis cinerea, 96 h, incubation for 4 days, Example 4, read-out: degree of inhibition
Helmintosporium teres = assay: Radial growth of the mycelium; format: cell-based
[12] = time 22 days (day control colonized the whole Petri dish)
[13] = time 12 days (day control colonized the whole Petri dish)
[14] = radial growth EC50 compared with B. cinerea
[15] = lowest concentration tested (1 mM)

O=C(O)CCCc1ccccc1 [4-PBA, 4-Phenylbutyric acid]
germination rate of the spores ([1]; 4-PBA 0.1 mM): 100%
inhibition at 1000 µM ([1]; Botrytis cinerea, 1 mM): 86%
concentration from which growth of the primary hypha is limited ([1]; liquid PDB): ≥ 0.1 mM
inhibition at 1000 µM (Cercospora beticola; 1 mM 4-PBA, time 22 days): 0%
inhibition at 2000 µM (Cercospora beticola; 2 mM 4-PBA, time 22 days): 13%
inhibition at 5000 µM (Cercospora beticola; 5 mM 4-PBA, time 22 days): 67%
EC50 (Cercospora beticola; [12]): 2810 µM
EC50 (Zymoseptoria tritici; 48 h, isolate 14-FT-A1, 48 hours): 245 µg/mL
EC50 (Zymoseptoria tritici; 48 h, isolate 14-FT-A1, 48 hours, read-out: EC50): 1320 µM
EC50 (Zymoseptoria tritici; 48 h, isolate 37-30, 48 hours): 163 µg/mL
EC50 (Zymoseptoria tritici; 48 h, isolate 37-30, 48 hours, read-out: EC50): 874 µM
EC50 (Zymoseptoria tritici; 48 h, isolate 37-41, 48 hours): 164 µg/mL
EC50 (Zymoseptoria tritici; 48 h, isolate 37-41, 48 hours, read-out: EC50): 880 µM
EC50 (Zymoseptoria tritici; 48 h, isolate 11183, 48 hours): 196 µg/mL
EC50 (Zymoseptoria tritici; 48 h, isolate 11183, 48 hours, read-out: EC50): 1050 µM
EC50 (Zymoseptoria tritici; 48 h, isolate IPO-323, 48 hours): 122 µg/mL
EC50 (Zymoseptoria tritici; 48 h, isolate IPO-323, 48 hours, read-out: EC50): 657 µM
EC50 (Zymoseptoria tritici; 48 h, isolate ST5548, 48 hours): 246 µg/mL
EC50 (Zymoseptoria tritici; 48 h, isolate ST5548, 48 hours, read-out: EC50): 1320 µM
EC50 (Zymoseptoria tritici; 48 h, isolate STDP-047915, 48 hours): 212 µg/mL
EC50 (Zymoseptoria tritici; 48 h, isolate STDP-047915, 48 hours, read-out: EC50): 1140 µM
EC50 (Zymoseptoria tritici; six isolates resistant to conventional fungicides, read-out: EC50 calculated for all of these isolates, order of magnitude): ~1000 µM
inhibition at 1000 µM ([2]; 1 mM 4-PBA, time 12 days): 68%
inhibition at 2000 µM ([2]; 2 mM 4-PBA, time 12 days): 80%
inhibition at 5000 µM ([2]; 5 mM 4-PBA, time 12 days): 99%
EC50 [2, 13]: 400 µM
macroscopic symptoms after infiltration of the leaves [3]: absence of macroscopic symptoms
inhibition at 1000 µM (Leptosphaeria maculans; 1 mM 4-PBA): 73%
inhibition at 2000 µM (Leptosphaeria maculans; 2 mM 4-PBA): 99%
inhibition at 5000 µM (Leptosphaeria maculans; 5 mM 4-PBA): 99%
leaves that did not display symptoms ([4]; 5·10^4 spores/mL, 4 days after inoculation): 37%
proportion of lesions whose diameter was greater than 4 mm ([4]; 4 days after inoculation): 23%
average diameter of the lesions divided by ([4]; 4 days, relative to fungus alone): 2.2 times
ratio of gDNA of the fungus to that of the plant, median decrease by a factor ([4]; quantitative PCR): 10
inhibition at 1000 µM (Alternaria brassicicola; strain 1, 1 mM 4-PBA): 70%
inhibition at 2000 µM (Alternaria brassicicola; strain 1, 2 mM 4-PBA): 88%
inhibition at 5000 µM (Alternaria brassicicola; strain 1, 5 mM 4-PBA): 97%
EC50 (Alternaria brassicicola; strain 1, time 10 days): 260 µM
inhibition at 1000 µM (Alternaria brassicicola; strain 1509, 1 mM 4-PBA): 58%
inhibition at 2000 µM (Alternaria brassicicola; strain 1509, 2 mM 4-PBA): 81%
inhibition at 5000 µM (Alternaria brassicicola; strain 1509, 5 mM 4-PBA): 96%
EC50 (Alternaria brassicicola; strain 1509, time 10 days): 640 µM
decrease in the average diameter of the lesions [5]: ~75%
growth at higher concentrations (Phytophthora parasitica; 2 and 5 mM): complete absence of growth for 20 days
inhibition at 1000 µM (Phytophthora parasitica; Phytophthora nicotianae, 240 h, 1 mM 4-PBA, time 10 days): 95%
inhibition at 2000 µM (Phytophthora parasitica; Phytophthora nicotianae, 240 h, 2 mM 4-PBA, time 10 days): 99%
inhibition at 5000 µM (Phytophthora parasitica; Phytophthora nicotianae, 240 h, 5 mM 4-PBA, time 10 days): 100%
EC50 (Phytophthora parasitica; Phytophthora nicotianae, 240 h, time 10 days (day control colonized the whole Petri dish)): 0.00024 µM
difference between EC50 calculated for B. cinerea and for P. parasitica (Phytophthora parasitica; Table 2 and FIG. 6b): 7 orders of magnitude
times more sensitive to the molecule than B. cinerea (Phytophthora parasitica; [14]): about 12 million
average diameters of the foliar lesions as a function of concentration ([6]; tomato M82 foliar disks, 0.5 to 2.5 mM): gradual decrease
efficacy of protection compared with the Moneymaker variety ([6]; tomato M82 foliar disks, 4-PBA 1 mM): equivalent efficacy
proportion of lesions larger than 4 mm in diameter ([6]; 4-PBA 1 mM, 5·10^4 spores/mL): 15%
proportion of lesions larger than 4 mm in diameter ([6]; 4-PBA 1 mM, 5·10^5 spores/mL): 23%
median ratio of gDNA of the fungus to that of the plant, times lower than fungus alone ([6]; 4-PBA 1 mM, 5·1^04 spores/mL): 40 times
median ratio of gDNA of the fungus to that of the plant, times lower than fungus alone ([6]; 4-PBA 1 mM, 5·10^5 spores/mL): 10 times
decrease of the average diameter of the lesions ([6]; 4-PBA 1 mM, highest concentration of spores (5·10^5 spores/mL)): 58%
decrease of the average diameter of the lesions ([6]; 4-PBA 1 mM, lowest concentration of spores (5·10^4 spores/mL)): 68%
effect on the aerial biomass [7]: no effect
inhibition at 1000 µM (Sclerotinia sclerotorum; 1 mM 4-PBA, time 7 days): 0%
inhibition at 2000 µM (Sclerotinia sclerotorum; 2 mM 4-PBA, time 7 days): 73%
inhibition at 5000 µM (Sclerotinia sclerotorum; 5 mM 4-PBA, time 7 days): 100%
EC50 (Sclerotinia sclerotorum; time 7 days (day control colonized the whole Petri dish)): 1900 µM
inhibition at 1000 µM ([8]; 288 h, 1 mM 4-PBA, time 12 days): 67%
inhibition at 2000 µM ([8]; 288 h, 2 mM 4-PBA, time 12 days): 75%
inhibition at 5000 µM ([8]; 288 h, 5 mM 4-PBA, time 12 days): 97%
EC50 ([8]; 288 h, time 12 days (day control colonized the whole Petri dish)): 450 µM
persistence of the molecule [8, 15]: ≤ 30 days
time for the fungus to overcome supplementation of the culture medium ([9]; 4-PBA 1 mM): 14 days
inhibition at 1000 µM ([9]; Phanerodontia chrysosporium, 96 h, 1 mM 4-PBA, time 4 days): 99%
inhibition at 2000 µM ([9]; Phanerodontia chrysosporium, 96 h, 2 mM 4-PBA, time 4 days): 100%
inhibition at 5000 µM ([9]; Phanerodontia chrysosporium, 96 h, 5 mM 4-PBA, time 4 days): 100%
development at higher concentrations ([9]; final concentrations of 2 and 5 mM): unable to develop
inhibition at 1000 µM (Alternaria solani; 1 mM 4-PBA, time 22 days): 25%
inhibition at 2000 µM (Alternaria solani; 2 mM 4-PBA, time 22 days): 62%
inhibition at 5000 µM (Alternaria solani; 5 mM 4-PBA, time 22 days): 100%
EC50 (Alternaria solani; [12]): 1650 µM
growth at higher concentrations (Phytophthora capsici; 2 and 5 mM): complete absence of growth for 20 days
inhibition at 1000 µM (Phytophthora capsici; Phytophthora capsici, 216 h, 1 mM 4-PBA, time 9 days): 90%
inhibition at 2000 µM (Phytophthora capsici; Phytophthora capsici, 216 h, 2 mM 4-PBA, time 9 days): 100%
inhibition at 5000 µM (Phytophthora capsici; Phytophthora capsici, 216 h, 5 mM 4-PBA, time 9 days): 100%
EC50 (Magnaporthe oryzae): 1330 µM
inhibition at 1000 µM (Magnaporthe oryzae): 39%
inhibition at 2000 µM (Magnaporthe oryzae): 66%
inhibition at 5000 µM (Magnaporthe oryzae): 100%
inhibition at 1000 µM (Fusarium graminearum; Fusarium graminearum, 144 h): 48%
inhibition at 2000 µM (Fusarium graminearum; Fusarium graminearum, 144 h): 97%
inhibition at 5000 µM (Fusarium graminearum; Fusarium graminearum, 144 h): 99%
persistence of the molecule (Fusarium graminearum; [15]): up to 10 days
inhibition at 1000 µM (Fusarium verticilloides; 1 mM 4-PBA, time 12 days): 66%
inhibition at 2000 µM (Fusarium verticilloides; 2 mM 4-PBA, time 12 days): 74%
inhibition at 5000 µM (Fusarium verticilloides; 5 mM 4-PBA, time 12 days): 98%
EC50 (Fusarium verticilloides; [13]): 500 µM
persistence of the active principle ([10]; 5 mM in culture medium): up to 23 days
radial growth of the mycelium ([10]; 1, 2 and 5 mM in PDA, 26 days): dose-dependent slowing
EC50 ([10]; Botrytis cinerea, read-out: EC50 (median inhibitory concentration, radial growth halved)): 2000 to 3000 µM
repression of mycelial growth measured by nephelometry ([11]; 4 days, Example 3): 94%
inhibition at 1000 µM [11]: 97%
inhibition at 1000 µM (Helmintosporium teres; 240 h, 1 mM 4-PBA, time 10 days): 94%
inhibition at 2000 µM (Helmintosporium teres; 240 h, 2 mM 4-PBA, time 10 days): 97%
inhibition at 5000 µM (Helmintosporium teres; 240 h, 5 mM 4-PBA, time 10 days): 100%
EC50 (Helmintosporium teres; 240 h, time 10 days (day control colonized the whole Petri dish)): 0.00665 µM
persistence of the molecule (Helmintosporium teres; [15]): ≤ 30 days
EC50 times lower than that of B. cinerea (Helmintosporium teres; [14]): 450 000 times

CCC(C(=O)O)c1ccccc1 (stereo not drawn) [2-PBA, 2-Phenylbutyric acid]
inhibition at 1000 µM [11]: ~70%
